According to the NIST ThermoML archive (doi:10.1016/j.fluid.2008.02.013):
Where “and” joins values, the source holds several entries; their conditions need not be identical. Equal entries are not always repeated. Numbers after ± are expanded uncertainties.

What was measured:
[1] = Molar enthalpy of transition or fusion; conditions: Crystal; DSC
[2] = Crystal; DTA

Molar enthalpy of transition or fusion [1]: 12.4 kcal/mol and 12.8 kcal/mol and 13.2 kcal/mol
Compound: C=C(C)[C@@H]1CC[C@]2(CO)CC[C@]3(C)[C@H](CC[C@@H]4[C@@]5(C)CC[C@H](O)C(C)(C)[C@@H]5CC[C@]43C)[C@@H]12 [betulin]
Normal melting temperature [2]: 257.5 ± 2 °C and 255.0 ± 2 °C and 254.8 ± 2 °C
